Experimental data: patent publication US20230037538A1, “ANTI-ALS COMPOUNDS” (Takeda Pharmaceutical Company Limited, priority 2021, published 2023)

How the values were obtained:
Assay type in all cases: cell-based, human
FTD affected fibroblasts = test: Stress granule assay in FTD affected fibroblasts (TDP-43 / HuR immunostaining after arsenite stress); details: vehicle (DMSO) alone set at 100, lower = fewer TDP-43 aggregates; for activity at 1 µM: Homo sapiens, Fibroblast, 1 μM compound, read-out: Normalized average number of TDP-43 positive HuR aggregates per cell at 1 μM; for Normalized average number of TDP-43 positive HuR aggregates per cell at 1.5 μM: 1.5 μM compound
Description: In this assay, TDP-43 aggregates in stress granules were quantified after 24 hrs of drug treatment followed by 90 minutes of 100 μM arsenite stress.
On day 1 20,000 patient derived fibroblasts per well were seeded in a 24 well glass bottom plate or 6000 cells per well in a 96 well plate. On day 2 compounds were added at the desired final concentration in fresh media to the respective wells. On day 3 sodium arsenite was added at a final concentration of 500 μM. Incubated at 37° C. for 60 mins. On day 9 wells were washed with PBS and fixed cells using 4% para formaldehyde (in PBS, prepared freshly, methanol free) for 15 mins at room temperature. Washed with PBS, blocked and permeabilized cells with 1% BSA+1% saponin (prepared in PBS) for 1 hour. For Immunostaining primary antibodies were made in 1% BSA (in PBS) and incubated overnight at 4° C. Rabbit polyclonal TDP-43 C-terminal antibody (Proteintech 12892-1-AP)-1:350; mouse monoclonal HuR antibody (Santa Cruz sc-5261)-1:500. On the next day, added the following secondary antibodies Alexa 594 anti-rabbit (Thermofisher Scientific) and Alexa 488 anti-mouse (Thermofisher Scientific) (1:500) in 1% BSA (in PBS) and kept in dark for 1-2 hours at room temperature. Washed and added DAPI in PBS for nuclear staining. The images were analyzed by the open source image analysis software CellProfiler 2.1.1 (offered by Broad Institute of Harvard and MIT—www.cellprofiler.org). This software contains various modules which can be used to analyze images in different ways.
The lower the number, the fewer the TDP-43 aggregates compared to vehicle (DMSO) alone, which is set at 100.

[1] = tested on: Fibroblast from FTD affected individual; test: Nucleocytoplasmic assay (NCA) in patient fibroblast, fibroblast from FTD affected individual; details: compound at 1 μM; DMSO-treated cell set as 100
Description: (§1) Skin-derived fibroblasts cells from Amnyotrophic Lateral Sclerosis (ALS) and Frontotemporal Degeneration (FTD) patients or affected individual acquired from the National Institute of Neurological Disorders and Stroke (NINDS #ND32947, ND41006, ND42717) were grown in HyClone DMEM High Glucose (GE Healthcare Life Sciences) supplemented with 15% FBS and 1% NEAA (Non-Essential Amino Acids), at 37° C. in a humidified atmosphere of 5% CO2. On day 1600 cells per well were seeded in a 96 well glass bottom plate or 1200 cells per well in a 24 well glass bottom plate. Incubated for 4 days, at 37° C. in a humidified atmosphere of 5% CO2, allowed cells to grow for 4 days. On day added compounds including vehicle control at the desired final concentration in fresh media to the respective wells, allowed cells to grow for an additional 4 days. On day 9 washed wells with PBS and fixed cells using 4% para formaldehyde (in PBS, prepared freshly, methanol free) for 15 mins at room temperature. Washed with PBS, blocked and permeabilized cells with 1% BSA+1% saponin (prepared in PBS) for 1 hour. For immunostaining the following primary antibodies were added in 1% BSA (in PBS) and incubated overnight at 4° C. Rabbit polyclonal TDP-43 C-terminal antibody (Proteintech 12892-1-AP)-1:350; mouse monoclonal HuR antibody (Santa Cruz sc-5261)-1:500. On the next day, added the following secondary antibodies Alexa 594 anti-rabbit (Thermofisher Scientific) and Alexa 488 anti-mouse (Thermofisher Scientific) (1:500) in 1% BSA (in PBS) and kept it in dark for 1-2 hours at room temperature. Wash and add DAPI in PBS for nuclear staining.
(§2) The immuno-stained cells were imaged with Nikon Ti inverted fluorescence microscope having CSU-22 spinning disk confocal and EMCCD camera. Plan Apo 20×/0.75 objective and NIS-Elements AR software were used for image acquisition. At least 15 images per well were taken. The exposure times for TDP-43 and HuR remained constant across one experiment. Each image acquired (in .nd format) was exported into three individual channel images (for DAPI, TDP-43, HuR) in .tiff format. The images were analyzed by the open source image analysis software Cell Profiller to calculate the signal intensities of TDP-43 present in the nucleus and cytoplasm in each cell. The DAPI image was used to count the total number of cells. The TDP-43 and HuR images are used to count the number of cells containing TDP-43 and/or HuR nuclear staining.
(§3) The nucleus/cytoplasm ratio of intensities of TDP-43 in each compound-treated (at 1 μM) cells comparing to DMSO-treated cell (which is set as 100) were shown.

Mutant VCP fibroblast = test: Nucleocytoplasmic assay (NCA) in patient fibroblast, mutant VCP fibroblast; details: compound at 1 μM; DMSO-treated cell set as 100
Description: as §1, §2, §3

Mutant TDP-43 fibroblast = test: Nucleocytoplasmic assay (NCA) in patient fibroblast, mutant TDP-43 fibroblast; details: compound at 1 μM; DMSO-treated cell set as 100
Description: as §1, §2, §3

Row | SMILES | activity at 1 µM (FTD affected fibroblasts) [%] | nucleus/cytoplasm ratio of intensities of TDP-43, Fibroblast from FTD affected individual [1] | nucleus/cytoplasm ratio of intensities of TDP-43, Mutant VCP fibroblast (Mutant VCP fibroblast) | nucleus/cytoplasm ratio of intensities of TDP-43, Mutant TDP-43 fibroblast (Mutant TDP-43 fibroblast) | Normalized average number of TDP-43 positive HuR aggregates per cell at 1.5 μM (FTD affected fibroblasts)
1 | COc1cc2c(cc1OCc1ccccc1)CCNC2/C=C/c1cnc2ncccn12 (centres unmarked) [AA, (E)-6-(benzyloxy)-1-(2-(imidazo[1,2-a]pyrimidin-3-yl)vinyl)-7-methoxy-1,2,3,4-tetrahydroisoquinoline] | 85 |  |  |  | 
2 | COc1cc2c(cc1OCc1ccccc1)CCNC2/C=C/c1cnc2ncc(F)cn12 (centres unmarked) [AC, (E)-6-(benzyloxy)-1-(2-(6-fluoroimidazo[1,2-a]pyrimidin-3-yl)vinyl)-7-methoxy-1,2,3,4-tetrahydroisoquinoline] | 85.8 |  |  |  | 
3 | COc1cnc2c(c1)c(/C=C/C1NCCc3cc(OCc4ccccc4)c(OC)cc31)cn2C (centres unmarked) [Example 7, 6-(benzyloxy)-7-methoxy-1-[(E)-2-(5-methoxy-1-methyl-1H-pyrrolo[2,3-b]pyridin-3-yl)ethenyl]-1,2,3,4-tetrahydroisoquinoline] | 40 | 175 | 191 | 143 | 
4 | COc1cc(C)c(/C=C/C2NCCc3cc(OCc4ccccc4)c(OC)cc32)cc1OC (centres unmarked) [Example 1, 6-(benzyloxy)-1-[(E)-2-(4,5-dimethoxy-2-methylphenyl)ethenyl]-7-methoxy-1,2,3,4-tetrahydroisoquinoline] | 67 | 148 | 153 | 147 | 
5 | COc1cc2c(cc1OCc1ccccc1)CCNC2/C=C/c1cc2c(cc1C)OCO2 (centres unmarked) [Example 5, 6-(benzyloxy)-7-methoxy-1-[(E)-2-(6-methyl-2H-1,3-benzodioxol-5-yl)ethenyl]-1,2,3,4-tetrahydroisoquinoline] | 83.3 | 139 | 179 | 137 | 
6 | COc1cc2c(cc1OCc1ccccc1)CCNC2/C=C/c1cn(C)c2nccc(OC)c12 (centres unmarked) [Example 26, 6-(benzyloxy)-7-methoxy-1-[(E)-2-(4-methoxy-1-methyl-1H-pyrrolo[2,3-b]pyridin-3-yl)ethenyl]-1,2,3,4-tetrahydroisoquinoline] | 59 | 146 | 256 |  | 
7 | COc1cc2c(cc1OCc1ccccc1)CCNC2/C=C/c1cnc2ncc(C)cn12 (centres unmarked) [AF, (E)-6-(benzyloxy)-7-methoxy-1-(2-(6-methylimidazo[1,2-a]pyrimidin-3-yl)vinyl)-1,2,3,4-tetrahydroisoquinoline] |  |  |  |  | 65.5
8 | COc1cc2c(cc1OCc1ccccc1)CCNC2/C=C/c1ccc(-c2cncnc2)cc1Cl (centres unmarked) [Example 9, 6-(benzyloxy)-1-{(E)-2-[2-chloro-4-(pyrimidin-5-yl)phenyl]ethenyl}-7-methoxy-1,2,3,4-tetrahydroisoquinoline] |  |  | 200 |  | 
9 | COc1cnc2ncc(/C=C/C3NCCc4cc(OCc5ccccc5)c(OC)cc43)n2c1 (centres unmarked) [AE, (E)-6-(benzyloxy)-7-methoxy-1-(2-(6-methoxyimidazo[1,2-a]pyrimidin-3-yl)vinyl)-1,2,3,4-tetrahydroisoquinoline] |  |  |  |  | 73.75
10 | COc1cc2c(cc1OCc1ccccc1)CCNC2/C=C/c1cnc2ncc(C(=O)O)cn12.Cl (centres unmarked) [AH, (E)-3-(2-(6-(benzyloxy)-7-methoxy-1,2,3,4-tetrahydroisoquinolin-1-yl)vinyl)imidazo[1,2-a]pyrimidine-6-carboxylic acid] |  |  |  |  | 71.4
11 | COc1cc2c(cc1OCc1ccccc1)CCNC2/C=C/c1cc2c(cc1C)OCCO2 (centres unmarked) [Example 4, 6-(benzyloxy)-7-methoxy-1-[(E)-2-(7-methyl-2,3-dihydro-1,4-benzodioxin-6-yl)ethenyl]-1,2,3,4-tetrahydroisoquinoline] | 70.9 |  |  | 130 | 
12 | COc1cc2c(cc1OCc1ccccc1)CCNC2/C=C/c1cnc2ncc(C(F)(F)F)cn12 (centres unmarked) [AD, (E)-6-(benzyloxy)-7-methoxy-1-(2-(6-(trifluoromethyl)imidazo[1,2-a]pyrimidin-3-yl)vinyl)-1,2,3,4-tetrahydroisoquinoline] | 83 |  |  |  | 71.00
13 | CCOC(=O)c1cnc2ncc(/C=C/C3NCCc4cc(OCc5ccccc5)c(OC)cc43)n2c1 (centres unmarked) [AG, Ethyl (E)-3-(2-(6-(benzyloxy)-7-methoxy-1,2,3,4-tetrahydroisoquinolin-1-yl)vinyl)imidazo[1,2-a]pyrimidine-6-carboxylate] | 87 |  |  |  | 
